The values below come from patent US9815866B2, “Peptides that bind to epithelial cell adhesion molecule” (JAPANESE FOUNDATION FOR CANCER RESEARCH, priority 2012, dated 2017).

Bridge positions count the residues as written; N and C are the ends. Ends that are not written are not given here. Peptide text beside a SMILES is read from it. * marks the point of attachment. Biotin = O=C1N[C@H]2[C@H](CS[C@H]2CCCCC(=O)*)N1

For experiment [1], the system named is anti-Ep114 antibody. Kind of experiment: Immunoprecipitation with biotinylated Ep114 on streptavidin beads: binding to anti-Ep114 antibody. The arrangement: species or system rabbit. The conditions noted are these: peptide on streptavidin-magnetic beads, Western blot. The method, then:
250 μg of streptavidin-magnetic beads (Dynabeads® M-280 streptavidin, VERITAS Corp.) in TBS containing 2% BSA was added to 20 μg of the biotinylated Ep114 peptide and shaken at room temperature for 30 minutes, followed by washing with TBS. Beads reacted without the peptide were used as a control. The anti-Ep114 antibody was added to the beads in TBST and reacted at room temperature for 1 hour. After washing with TBS, the beads were collected. The collected beads were heated at 95° C. for 5 minutes in a SDS sample buffer. After Western-blotting, the anti-Ep114 antibody was detected using HRP-labeled anti-rabbit antibodies.
A schematic diagram of the reaction with the magnetic beads is shown in the left panel of FIG. 5A, and the Western blot results are shown on the right panel thereof.

In experiment [2] the target is T1, EpCAM on HT-29 (Homo sapiens, UniProt P16422).
T1 sequence (P16422 24-314): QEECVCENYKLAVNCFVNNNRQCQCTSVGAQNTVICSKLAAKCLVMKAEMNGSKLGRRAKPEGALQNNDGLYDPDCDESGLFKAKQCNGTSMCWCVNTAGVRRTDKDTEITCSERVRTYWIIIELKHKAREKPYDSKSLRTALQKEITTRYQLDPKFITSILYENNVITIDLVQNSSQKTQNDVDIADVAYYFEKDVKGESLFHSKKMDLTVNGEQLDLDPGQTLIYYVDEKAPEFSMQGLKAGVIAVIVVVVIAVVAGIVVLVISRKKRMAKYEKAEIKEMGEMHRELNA
Kind of experiment: Staining of spheroid-cultured HT-29 cells with FITC-modified peptide. The arrangement: endogenous in cells; host or cells: HT-29. As to conditions: FITC-labeled peptide, 0.4 μM. The class given is cell-based. The method, then:
The HT-29 cells as EpCAM-expressing cells were cultured by spheroid culture method as follows: 4×10^5 cells are suspended in 3 ml of D-MEM/F-12 medium (Dulbecco's Modified n Eagle Medium:Nutrient Mixture 12, 1:1 mixture) (Gibco/Life Technologies Inc.) supplemented with 20 ng/ml human EGF (Miltenyi Biotec K.K.), 20 ng/ml human EGF-2 (Miltenyi Biotec K.K.), B-27 (Gibco/Life Technologies Inc.), penicillin, and streptomycin and inoculated to EZ-Sphere®, a Petri dish of 3.5 cm in diameter coated with MPC polymer. After static culture for 72 hours, the cells were collected while the medium was suspended by pipetting. The cells were stained with the FITC-modified peptide and observed under a fluorescence microscope. […]

Experiment [3] has as its target T2, EpCAM (Homo sapiens, UniProt P16422).
T2 construct: with insertions myc and His tags at the C terminus of the extracellular domain; myc (C); made in house; host or cells: HEK-293T
T2 sequence (P16422 24-265 limits assumed): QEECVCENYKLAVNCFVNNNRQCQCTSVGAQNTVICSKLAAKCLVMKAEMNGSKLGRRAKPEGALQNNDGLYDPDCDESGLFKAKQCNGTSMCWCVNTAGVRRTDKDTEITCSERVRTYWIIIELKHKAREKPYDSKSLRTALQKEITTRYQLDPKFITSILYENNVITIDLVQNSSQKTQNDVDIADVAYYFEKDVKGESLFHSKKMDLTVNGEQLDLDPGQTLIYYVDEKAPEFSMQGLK
Kind of experiment: ELISA with immobilized biotinylated peptide and purified EpCAM. The class given is binding. The conditions noted are these: purified EpCAM 0, 10 or 100 ng. The method, then: was immobilized onto an ELISA plate via streptavidin, and purified EpCAM was added thereto in an amount of 0, 10, or 100 ng and reacted. After washing, bound EpCAM was detected using the anti-EpCAM antibody. A biotin-modified peptide PE194 (Ac-[…](biotin)-NH2) (SEQ ID NO: 13) of the L3A variant (non-EpCAM-binding variant) was used as a control.

The target of experiment [4] is T2, EpCAM. Kind of experiment: ELISA with ferritin-fused Ep114 peptide. It counts as binding. As to conditions: either partner immobilized. The method, then:
Ep114 was fused to the N terminus of Fer8 (Non Patent Literature 6), a ferritin derivative, and used in analysis.
1 μg of the ferritin-fused Ep114 peptide (Ep114/fer8) or ferritin (fer8) was immobilized onto an ELISA plate. Then, purified EpCAM was added thereto at different concentrations. Bound EpCAM was detected using the anti-EpCAM antibody (FIG. 8A).
Next, 0.2 μg of purified EpCAM was immobilized onto an ELISA plate. Then, the ferritin-fused Ep114 peptide (Ep114/fer8) or ferritin (fer8) was added thereto at different concentrations. Bound Ep114 peptide (Ep114/fer8) or ferritin (fer8) was detected using an anti-ferritin antibody (FIG. 8B).

Experiment [5] deals with T3, 293T cells transfected with full-length EpCAM gene (Homo sapiens, UniProt P16422).
T3 construct: an expression plasmid in which the full-length EpCAM gene incorporated; expressed in transfected cells; host or cells: 293T
T3 sequence (P16422 24-314): T1 sequence (P16422 24-314)
Kind of experiment: Staining of 293T cells forced to express EpCAM with FITC-modified peptide. The class given is cell-based. From the text: 293T cells expressing no endogenous EpCAM were transfected with pkk196, an expression plasmid in which the full-length EpCAM gene incorporated, and forced to express EpCAM, followed by staining using FITC-modified Ep114.

Experiment [6] has as its target T4, EpCAM (Homo sapiens, UniProt P16422).
T4 sequence (P16422 24-314): T1 sequence (P16422 24-314)
As to the kind of experiment: Binding activity against EpCAM after oxidation treatment (S—S bond formation, HPLC fractionation).

Experiment [7] concerns the target T2, EpCAM. Kind of experiment: Dissociation constant of EpCAM-binding peptide and EpCAM by fluorescence depolarization method. As to conditions: FITC-modified peptide; Kd estimated by curve fitting, Hill equation; N.B.: Not bound. The method, then: The obtained EpCAM peptides were assayed for their strength of binding to EpCAM by the fluorescence depolarization method, which is a method for evaluating the interaction between molecules. Each fluorescently labeled EpCAM peptide and EpCAM are used to determine the strength of binding from the kinetics of depolarization by Brownian movement.
Each FITC-modified EpCAM peptide or control peptide was suspended at a concentration of approximately 100 μM in PBS. After centrifugation, the supernatant was collected and diluted 10-fold, and the absorbance was measured at 495 nm From the measurement value, the molar concentration of the peptide was determined using the formula of Beer-Lambert of the following expression 1: A=E×b×C [Expression 1]
EpCAM is diluted with PBS into several concentrations from 0 until reaching equilibrium (40 nM for the Ep133 peptide), and the FITC-modified peptide whose precise concentration has been measured by the aforementioned method is added to the dilutions thus prepared. The sample was left at a temperature for measurement for 30 minutes or longer and subjected to polarization measurement using a spectrofluorometer FP-6500 (JASCO Corp.) equipped with an automatic polarization measurement unit (JASCO Corp., APH-103). Kd was estimated by curve fitting according to the Hill equation.
The dissociation constants of the two types of peptides Ep133 (FIG. 2(A)) and Ep114 (FIG. 2(C)), which were obtained in the present invention and had the high ability to bind to EpCAM, were measured by the fluorescence depolarization method.
The dissociation constants of the EpCAM-binding peptide Ep301 (FIG. 2(D)) disclosed in Patent Literature 2 and Ep301 control (FIG. 2(E)), which was a control peptide derived from Ep301 by the substitution of cysteine at positions 5 and 10 by serine, and a sequence of EpCAM from residue 106 to 119 (FIG. 2(F)) having partial homology to EpCAM-binding peptides were measured similarly.

Experiment [8] concerns the target T5, EpCAM-expressing cells HT-29 (Homo sapiens, UniProt P16422).
T5 construct: EpCAM on HT-29 was stained at a concentration of 0.4 μM; endogenous in cells; host or cells: HT-29
T5 sequence (P16422 24-314): T1 sequence (P16422 24-314)
Kind of experiment: Cell staining of HT-29 cells, confocal microscope. It counts as cell-based. The conditions noted are these: HT-29, FITC-labeled peptide 0.4 μM, 37° C., 1 hour. The method, then: The EpCAM-expressing cells HT-29 or the non-expressing cells Hs578T were cultured in a medium containing 10% fetal calf serum in a Petri dish for 48 hours and then incubated at 37° C. for 1 hour with the FITC-labeled Ep114 peptide or a L3A control labeled peptide at a final concentration of 0.4 μM Immediately thereafter, the cells were observed under a confocal microscope.

For “biotinylated Ep114: Ep114 peptide biotinylated at the stage of its synthesis, without linker (KHLQCVRNICWS; cysteine pairing not given here; also: biotin label, position not given here)”, the “binding to anti-Ep114 antibody” value in experiment [1] is reported as “bound with the anti-Ep114 antibody”. In the case of “133control-FITC: FITC-labeled Ep133 control peptide in which cysteine at positions 5 and 10 is substituted by serine (EHLHSLGSLSWP; also: FITC-labeled, position not given here) [reference compound]”, the “staining of EpCAM on HT-29 spheroids” value in experiment [2] was “no staining is observed”. With “Ac-KHAQCVRNICWSPPPPPPKK(Biotin)-NH2 (cysteine pairing not given here) [PE194, reference compound]”, in experiment [3], the ELISA signal entry is recorded as “increase in signal intensity was rarely observed”. Consider “133-FITC: FITC-labeled Ep133 peptide (EHLHCLGSLCWP; cysteine pairing not given here; also: FITC-labeled, position not given here) [Peptide 133-FITC]”, for which the “staining of EpCAM on HT-29 spheroids” value in experiment [2] was “stained”.

With “ferritin-fused Ep114 peptide: Ep114 fused to the N terminus of Fer8, a ferritin derivative (KHLQCVRNICWS; not fully specified (C-terminus, bridges); cysteine pairing not given here; also: fused to ferritin Fer8 (recombinant carrier), not in the letters)”, the “detection of EpCAM” value in experiment [4] is on record as “capable of sensitively detecting EpCAM”. Regarding `CC(C)C[C@@H]1NC(=O)[C@@H](NC(=O)[C@H](Cc2c[nH]cn2)NC(=O)[C@H](CC(C)C)NC(=O)[C@H](Cc2c[nH]cn2)NC(=O)[C@@H](N)CCC(=O)O)CSSC[C@@H](C(=O)N[C@@H](Cc2c[nH]c3ccccc23)C(=O)N2CCC[C@H]2C(=O)O)NC(=O)[C@H](CC(C)C)NC(=O)[C@H](CO)NC(=O)CNC1=O` [Ep133, EHLHCLGSLCWP] (H-EHLHCLGSLCWP-OH; disulfide 5-10; N-terminus and C-terminus assumed), in experiment [5] (data not shown), the “ability to bind to EpCAM without active oxidation treatment” value was “did not show the ability to bind to EpCAM”. Moreover, in experiment [6], the “binding activity against EpCAM” value is recorded as “only a fraction of the peptides having the S—S bond showed binding activity against EpCAM”. As for “EHLHSLGSLSWP [Ep133 control, Ep133 with cysteine at positions 5 and 10 substituted by serine]”, the “Kd (nM)” value in experiment [7] is given as “N.B”. On to “Ep114Cys: FITC-modified Ep114 peptide that did not undergo oxidation treatment (KHLQCVRNICWS; also: FITC-modified, position not given here, no oxidation treatment, cysteines not deliberately cross-linked)”, for which the “ability to stain EpCAM” value in experiment [5] (FITC-modified peptide with or without oxidation treatment) is “equivalent ability to stain EpCAM”. For the compound “KSLQSINNLSWP [Ep301 control, Ep301 with cysteine at positions 5 and 10 substituted by serine]”, in experiment [7], the “Kd (nM)” value is “N.B”.

As for “114-FITC: FITC-labeled Ep114 peptide (KHLQCVRNICWS; cysteine pairing not given here; also: FITC-labeled, position not given here) [Peptide 114-FITC]”, the “staining of EpCAM on HT-29 spheroids” value in experiment [2] is “stained”.

On to KAKQCNGTSMCWPK [EpCAM partial sequence], for which, in experiment [7], the “Kd (nM)” value is “N.B”. In the case of “Ac-KHLQCVRNICWSPPPPPPKK(Biotin)-NH2 (cysteine pairing not given here) [PE183]”, the ELISA signal entry in experiment [3] was “enhancement in ELISA signal proportional to the amount of EpCAM added”.

On to “114control-FITC: FITC-labeled Ep114 control peptide in which cysteine at positions 5 and 10 is substituted by serine (KHLQSVRNISWS; also: FITC-labeled, position not given here) [reference compound]”, for which, in experiment [2], the “staining of EpCAM on HT-29 spheroids” value is “no staining is observed”. Take “L3A variant: FITC-labeled Ep114 variant peptide with leucine at 3rd residue substituted by alanine, staining control (KHAQCVRNICWS; cysteine pairing not given here; also: FITC-labeled, position not given here) [reference compound]”: the “staining of cell membrane portions” value in experiment [8] is on record as “no staining was observed”.
